Assay: osmotic coefficient (dimensionless); mn = molality of the nth substance listed, in mol/kg
Details: 323.15 K, Liquid, vapor pressure osmometry

CCCCO [butan-1-ol] + COS(=O)(=O)[O-].Cc1ccc[n+](C)c1
Details	osmotic coefficient
m1 = 0.0259	0.824
m1 = 0.0466	0.746
m1 = 0.1056	0.668
m1 = 0.2078	0.601
m1 = 0.3112	0.528
m1 = 0.4005	0.501
m1 = 0.5132	0.469
m1 = 0.9858	0.425
m1 = 1.282	0.406
m1 = 1.685	0.394
m1 = 2.078	0.387
m1 = 2.497	0.375
m1 = 2.911	0.368

CCC(C)O (centres undefined) [butan-2-ol] + COS(=O)(=O)[O-].Cc1ccc[n+](C)c1
Details	osmotic coefficient
m1 = 0.0458	0.818
m1 = 0.0728	0.729
m1 = 0.0933	0.696
m1 = 0.2019	0.605
m1 = 0.3113	0.547
m1 = 0.3991	0.512
m1 = 0.4981	0.474
m1 = 0.6846	0.441
m1 = 0.9815	0.408
m1 = 1.285	0.383
m1 = 1.687	0.361
m1 = 2.105	0.345
m1 = 2.501	0.333
m1 = 2.914	0.327
m1 = 3.291	0.32

CCCCCO [pentan-1-ol] + COS(=O)(=O)[O-].Cc1ccc[n+](C)c1
Details	osmotic coefficient
m1 = 0.0303	0.77
m1 = 0.0543	0.677
m1 = 0.0875	0.618
m1 = 0.1103	0.584
m1 = 0.2153	0.505
m1 = 0.3078	0.464
m1 = 0.412	0.425
m1 = 0.5092	0.401
m1 = 0.8077	0.372
m1 = 1.106	0.352
m1 = 1.71	0.33
m1 = 2.229	0.315
m1 = 2.726	0.308
m1 = 3.198	0.3

CCCO [propan-1-ol] + COS(=O)(=O)[O-].Cc1ccc[n+](C)c1
Details	osmotic coefficient
m1 = 0.0785	0.885
m1 = 0.0971	0.803
m1 = 0.2088	0.711
m1 = 0.3089	0.671
m1 = 0.4144	0.658
m1 = 0.5126	0.642
m1 = 0.8126	0.609
m1 = 1.104	0.576
m1 = 1.401	0.548
m1 = 1.691	0.533
m1 = 2.219	0.508
m1 = 2.721	0.494
m1 = 3.211	0.478

CC(C)O [propan-2-ol] + COS(=O)(=O)[O-].Cc1ccc[n+](C)c1
Details	osmotic coefficient
m1 = 0.072	0.969
m1 = 0.1185	0.873
m1 = 0.2149	0.767
m1 = 0.3087	0.699
m1 = 0.408	0.654
m1 = 0.5005	0.628
m1 = 0.7082	0.57
m1 = 1.013	0.532
m1 = 1.296	0.51
m1 = 1.72	0.49
m1 = 2.095	0.468
m1 = 2.494	0.46
m1 = 2.956	0.436
m1 = 3.326	0.419

— the NIST ThermoML archive (doi:10.1016/j.jct.2011.01.010)
